Assay results as given in US9562899B2, “Method of detecting OXA-048 carbapenemase producing bacteria” (BIOMÉRIEUX, priority 2012, dated 2017).
Like-named read-outs stand apart in the source and are kept apart here.

Legend:
NDM-1 strains = format: cell-based, Enterobacteriaceae; conditions: Ex 2, MIC in mg/l
Source text: (§1) Optimization of the Detection Specificity by Introducing Specific Inhibitors Inhibition of Class B Strains (NDM, VIM, IMP) by Adding EDTA
(§2) Identical to that used to determine the temocillin MICs by agar dilution (example 1).
(§3) For each temocillin concentration, the following concentrations of active EDTA will be tested in the form of disodium EDTA: 0, 1.77, 2.12, 2.47 and 2.83 mmol/l.
(§4) Method: identical to the method used in example 1.

VIM strains = format: cell-based, Enterobacteriaceae; conditions: Ex 2, MIC in mg/l
Source text: as §1, §2, §3, §4

[1] = tested on: strains with impermeability-mediated resistance (IR); format: cell-based, Enterobacteriaceae; conditions: Ex 2, MIC in mg/l
Source text: as §1, §2, §3, §4

Non-OXA-48 strains = assay: Prototype medium, strains detected (Example 3); format: cell-based, Enterobacteriaceae; conditions: Non-OXA-48 deposit of 10^6 CFU; temocillin 300 mg/l; 24 hours
Procedure: (§5) The media are prepared in 55 mm diameter Petri dishes. They are inoculated using a bacterial suspension in physiological saline at 0.5 McF for the non-OXA-48 strains and with a 1/100 and 1/10 000 dilution of a suspension at 0.5 McF for the OXA-48 strains. The inoculation consists of 3-quadrant streaking using a 10 μl calibrated loop: theoretical deposit of 10^4 or 10^2 CFU for the OXA-48 strains and of 10^6 CFU for the strains not producing OXA-48.
(§6) The media are incubated at 37° C. The readings will be carried out after 18 and 24 hours of incubation.
(§7) The growth density, the colony sizes and also the coloration (color and strength) are evaluated.
(§8) Reaction medium identical to the base used for example 1. A selective system comprising a mixture of antibiotics and antifungals which is specific for Gram-positives, yeasts and Gram-negatives which are non-fermenting, and also cloxacillin and EDTA, is also added.
(§9) A medium at 200 mg/l of temocillin is tested without selective system as indicated above.

OXA-48 strains [2] = assay: Prototype medium, strains detected (Example 3); format: cell-based, Enterobacteriaceae; conditions: 24 hours of incubation
Procedure: as §5, §6, §7, §8, §9

BLSE strains = assay: Temocillin MIC, agar dilution (Example 1); format: cell-based, Enterobacteriaceae; conditions: Ex 1; temocillin alone; MIC in mg/l
Procedure: (§10) Determination of the MICs with Respect to Temocillin for a Panel of CPE Strains (Using the Agar Dilution Method)
(§11) Reaction medium: the base is a chromLD™ CPS medium (bioMérieux, ref. 43821-43829), comprising a chromogenic substrate for beta-glucuronidase, a chromogenic substrate for beta-glucosidase, a chromogenic substrate for beta-galactosidase and a substrate for deaminase. Temocillin is added to this base medium at the concentrations indicated hereinafter.
(§12) Temocillin range tested: 50-150-200-300 mg/l (disodium temocillin, Eumedica SA, Manage, Belgium).
(§13) The media are inoculated by depositing a spot: 1 μl of a microbial suspension in physiological saline at 0.5 McF, diluted to 1/10.
(§14) Incubation for 24 h at 37° C.
(§15) Reading after incubation for 24 hours. The medium with the smallest temocillin concentration on which a negative growth spot is obtained will be retained as the MIC. The spots having only 3 colonies or less or a total absence of growth were considered to be negative.

[3] = tested on: strains with impermeability-mediated resistance to carbapenems (IR); assay: Temocillin MIC, agar dilution (Example 1); format: cell-based, Enterobacteriaceae; conditions: Ex 1; temocillin alone; MIC in mg/l
Procedure: as §10, §11, §12, §13, §14, §15

OXA-48 strains [4] = conditions: Livermore et al., cited from earlier work

## CO[C@@]1(NC(=O)C(C(=O)O)c2ccsc2)C(=O)N2[C@@H](C(=O)O)C(C)(C)S[C@@H]21 (stereo partly shown) [temocillin]
NDM-1 strains; 0 mmol/l of EDTA
  No. of NDM-1 strains with MIC 150: 4
  No. of NDM-1 strains with MIC 200: 1
  No. of NDM-1 strains with MIC 300: 0
  No. of NDM-1 strains with MIC >300: 0
  No. of NDM-1 strains with MIC ≦50: 22
NDM-1 strains; 1.77 mmol/l of active EDTA
  No. of NDM-1 strains with MIC 150: 2
  No. of NDM-1 strains with MIC 200: 0
  No. of NDM-1 strains with MIC 300: 0
  No. of NDM-1 strains with MIC >300: 0
  No. of NDM-1 strains with MIC ≦50: 25
NDM-1 strains; 2.12 mmol/l of active EDTA
  No. of NDM-1 strains with MIC 150: 1
  No. of NDM-1 strains with MIC 200: 0
  No. of NDM-1 strains with MIC 300: 0
  No. of NDM-1 strains with MIC >300: 0
  No. of NDM-1 strains with MIC ≦50: 26
NDM-1 strains; 2.47 mmol/l of active EDTA
  No. of NDM-1 strains with MIC 150: 1
  No. of NDM-1 strains with MIC 200: 0
  No. of NDM-1 strains with MIC 300: 0
  No. of NDM-1 strains with MIC >300: 0
  No. of NDM-1 strains with MIC ≦50: 26
NDM-1 strains; 2.83 mmol/l of active EDTA
  No. of NDM-1 strains with MIC 150: 0
  No. of NDM-1 strains with MIC 200: 0
  No. of NDM-1 strains with MIC 300: 0
  No. of NDM-1 strains with MIC >300: 0
  No. of NDM-1 strains with MIC ≦50: 27
VIM strains; 0 mmol/l of EDTA
  No. of VIM strains with MIC 150: 6
  No. of VIM strains with MIC 200: 1
  No. of VIM strains with MIC 300: 0
  No. of VIM strains with MIC >300: 1
  No. of VIM strains with MIC ≦50: 9
VIM strains; 1.77 mmol/l of active EDTA
  No. of VIM strains with MIC 150: 0
  No. of VIM strains with MIC 200: 0
  No. of VIM strains with MIC 300: 0
  No. of VIM strains with MIC >300: 0
  No. of VIM strains with MIC ≦50: 17
VIM strains; 2.12 mmol/l of active EDTA
  No. of VIM strains with MIC 150: 0
  No. of VIM strains with MIC 200: 0
  No. of VIM strains with MIC 300: 0
  No. of VIM strains with MIC >300: 0
  No. of VIM strains with MIC ≦50: 17
VIM strains; 2.47 mmol/l of active EDTA
  No. of VIM strains with MIC 150: 0
  No. of VIM strains with MIC 200: 0
  No. of VIM strains with MIC 300: 0
  No. of VIM strains with MIC >300: 0
  No. of VIM strains with MIC ≦50: 17
VIM strains; 2.83 mmol/l of active EDTA
  No. of VIM strains with MIC 150: 0
  No. of VIM strains with MIC 200: 0
  No. of VIM strains with MIC 300: 0
  No. of VIM strains with MIC >300: 0
  No. of VIM strains with MIC ≦50: 17
[1]; 0 mmol/l of EDTA
  No. of IR strains with MIC 150: 2
  No. of IR strains with MIC 200: 0
  No. of IR strains with MIC 300: 0
  No. of IR strains with MIC >300: 0
  No. of IR strains with MIC ≦50: 8
[1]; 1.77 mmol/l of active EDTA
  No. of IR strains with MIC 150: 4
  No. of IR strains with MIC 200: 1
  No. of IR strains with MIC 300: 1
  No. of IR strains with MIC >300: 0
  No. of IR strains with MIC ≦50: 4
[1]; 2.12 mmol/l of active EDTA
  No. of IR strains with MIC 150: 3
  No. of IR strains with MIC 200: 2
  No. of IR strains with MIC 300: 1
  No. of IR strains with MIC >300: 0
  No. of IR strains with MIC ≦50: 4
[1]; 2.47 mmol/l of active EDTA
  No. of IR strains with MIC 150: 2
  No. of IR strains with MIC 200: 2
  No. of IR strains with MIC 300: 0
  No. of IR strains with MIC >300: 0
  No. of IR strains with MIC ≦50: 6
[1]; 2.83 mmol/l of active EDTA
  No. of IR strains with MIC 150: 3
  No. of IR strains with MIC 200: 1
  No. of IR strains with MIC 300: 0
  No. of IR strains with MIC >300: 0
  No. of IR strains with MIC ≦50: 6
Non-OXA-48 strains
  No. of strains detected: 1/13
OXA-48 strains [2]; OXA-48 deposit of 10^2 CFU, temocillin 200 mg/l without selective system
  No. of strains detected: 15/15
OXA-48 strains [2]; OXA-48 deposit of 10^2 CFU, temocillin 200 mg/l
  No. of strains detected: 15/15
OXA-48 strains [2]; OXA-48 deposit of 10^2 CFU, temocillin 300 mg/l
  No. of strains detected: 15/15
OXA-48 strains [2]; OXA-48 deposit of 10^2 CFU, temocillin 500 mg/l
  No. of strains detected: 9/15
OXA-48 strains [2]; OXA-48 deposit of 10^4 CFU, temocillin 200 mg/l without selective system
  No. of strains detected: 15/15
OXA-48 strains [2]; OXA-48 deposit of 10^4 CFU, temocillin 200 mg/l
  No. of strains detected: 15/15
OXA-48 strains [2]; OXA-48 deposit of 10^4 CFU, temocillin 300 mg/l
  No. of strains detected: 15/15
OXA-48 strains [2]; OXA-48 deposit of 10^4 CFU, temocillin 400 mg/l
  No. of strains detected: 15/15
OXA-48 strains [2]; OXA-48 deposit of 10^4 CFU, temocillin 500 mg/l
  No. of strains detected: 12/15
BLSE strains
  No. of BLSE strains with MIC 150: 0
  No. of BLSE strains with MIC 200: 0
  No. of BLSE strains with MIC 300: 0
  No. of BLSE strains with MIC >300: 2
  No. of BLSE strains with MIC ≦50: 8
[3]
  No. of IR strains with MIC 150: 2
  No. of IR strains with MIC 200: 0
  No. of IR strains with MIC 300: 0
  No. of IR strains with MIC >300: 0
  No. of IR strains with MIC ≦50: 8
OXA-48 strains [4]; OXA-48 strains
  strains resistant to temocillin: 18/19
OXA-48 strains [4]; resistant strains, growth at final concentration tested of 128 mg/l
  minimum inhibitory concentration (MIC): ≥ 256 µg/mL
